From publication PMC8708872, “Discovery of a Novel Template, 7-Substituted 7-Deaza-4′-Thioadenosine Derivatives as Multi-Kinase Inhibitors” (Pharmaceuticals, 2021)
pIC50: −log10 of the molar value.

Experiments:
Experiment in all cases: CYP inhibition assay
Assay type in all cases: in vitro ADME
Conditions in all cases: human liver microsomes
CYP1A2 = biological target: T1, CYP1A2 (Homo sapiens, UniProt P05177)
T1 construct: Human liver microsomes (0.25 mg/mL); from tissue; host or cells: human liver microsomes
Method: (§1) Human liver microsomes (0.25 mg/mL), 0.1 M phosphate buffer (pH 7.4), a cocktail of five […] substrates (Phenacetin 50 μM, Diclofenac 10 μM, S-mephenytoin 100 μM, Dextromethorphan 5 μM, Midazolam 2.5 μM), and test compound (10 μM concentration) was pre-incubated for 5 min at 37 °C. NADPH generation system solution was added and incubated for 15 min at 37 °C. In order to terminate the reaction, acetonitrile solution containing an internal standard (Terfenadine) was added and centrifuged for 5 min (14,000× g […], 4 °C). The supernatant was injected into the LC-MS/MS system to analyze the metabolites of the substrates simultaneously. Metabolites of each substrate produced during the reaction were analyzed using the Shimadzu Nexera XR system and TSQ vantage (Thermo). Kinetex C18 column (2.1 × 100 mm, 2.6 μm particle size; Phenomenex, USA) was used for HPLC. The mobile phase used contained 0.1% formic acid in distilled water (A) and 0.1% formic acid containing acetonitrile (B). The generated metabolites were quantified using MRM (Multiple Reaction Monitoring) and Xcalibur (version 1.6.1) was used for data analysis.

CYP2C9 = biological target: T2, CYP2C9 (Homo sapiens, UniProt P11712)
T2 construct: Human liver microsomes (0.25 mg/mL); from tissue; host or cells: human liver microsomes
Method: as §1

CYP2C19 = biological target: T3, CYP2C19 (Homo sapiens, UniProt P33261)
T3 construct: Human liver microsomes (0.25 mg/mL); from tissue; host or cells: human liver microsomes
Method: as §1

T2 sequence (P11712 whole entry): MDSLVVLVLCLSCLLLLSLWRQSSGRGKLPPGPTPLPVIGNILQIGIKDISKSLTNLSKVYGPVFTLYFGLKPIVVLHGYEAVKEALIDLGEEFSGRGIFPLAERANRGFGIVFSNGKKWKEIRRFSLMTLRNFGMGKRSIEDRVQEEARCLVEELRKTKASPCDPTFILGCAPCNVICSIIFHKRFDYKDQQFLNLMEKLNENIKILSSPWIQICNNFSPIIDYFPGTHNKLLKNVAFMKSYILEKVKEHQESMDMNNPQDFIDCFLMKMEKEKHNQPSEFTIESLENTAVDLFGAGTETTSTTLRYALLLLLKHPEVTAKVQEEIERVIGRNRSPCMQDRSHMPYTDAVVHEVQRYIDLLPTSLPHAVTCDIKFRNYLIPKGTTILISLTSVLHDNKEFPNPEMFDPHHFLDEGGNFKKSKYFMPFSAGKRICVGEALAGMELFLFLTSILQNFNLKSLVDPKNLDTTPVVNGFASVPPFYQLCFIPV
T3 sequence (P33261 whole entry): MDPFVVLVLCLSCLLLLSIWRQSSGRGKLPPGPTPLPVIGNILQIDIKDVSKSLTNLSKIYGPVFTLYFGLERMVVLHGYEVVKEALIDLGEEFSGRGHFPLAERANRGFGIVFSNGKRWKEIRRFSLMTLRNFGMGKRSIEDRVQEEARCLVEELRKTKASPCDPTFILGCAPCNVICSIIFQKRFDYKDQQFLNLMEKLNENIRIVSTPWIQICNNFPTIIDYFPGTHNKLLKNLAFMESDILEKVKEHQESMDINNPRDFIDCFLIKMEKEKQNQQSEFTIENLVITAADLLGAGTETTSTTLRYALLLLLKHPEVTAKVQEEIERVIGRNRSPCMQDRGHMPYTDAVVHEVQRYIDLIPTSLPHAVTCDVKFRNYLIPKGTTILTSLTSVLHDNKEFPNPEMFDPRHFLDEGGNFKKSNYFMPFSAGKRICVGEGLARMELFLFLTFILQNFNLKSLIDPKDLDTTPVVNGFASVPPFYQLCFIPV
T1 sequence (P05177 whole entry): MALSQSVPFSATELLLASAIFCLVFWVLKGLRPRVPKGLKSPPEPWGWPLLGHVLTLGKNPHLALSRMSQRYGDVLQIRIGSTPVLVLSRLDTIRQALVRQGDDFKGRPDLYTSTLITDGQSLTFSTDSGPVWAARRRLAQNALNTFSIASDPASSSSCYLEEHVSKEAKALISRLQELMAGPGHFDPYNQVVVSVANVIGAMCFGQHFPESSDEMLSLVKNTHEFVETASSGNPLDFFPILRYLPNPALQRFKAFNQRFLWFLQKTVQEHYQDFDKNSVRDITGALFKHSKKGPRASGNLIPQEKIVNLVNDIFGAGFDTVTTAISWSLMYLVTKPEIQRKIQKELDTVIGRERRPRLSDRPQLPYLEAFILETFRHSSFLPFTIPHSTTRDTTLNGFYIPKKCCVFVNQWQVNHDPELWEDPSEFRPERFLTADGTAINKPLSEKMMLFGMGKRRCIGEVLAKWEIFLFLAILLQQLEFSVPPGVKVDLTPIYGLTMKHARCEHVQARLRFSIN

- pIC50 (CYP1A2): < 4.70
- pIC50 (CYP2C9): < 4.70
- pIC50 (CYP2C19): < 4.70
Compound: C#Cc1cn([C@@H]2S[C@H](CO)[C@@H](O)[C@H]2O)c2ncnc(N)c12 [Compound 1g, (2R,3R,4S,5R)-2-(4-Amino-5-ethynyl-7H-pyrrolo[2,3-d]pyrimidin-7-yl)-5-(hydroxymethyl)tetrahydrothiophene-3,4-diol]
